Measurements taken from ChEMBL document CHEMBL1158467, “In vitro intrinsic clearance-based optimization of N3-phenylpyrazinones as corticotropin-releasing factor-1 (CRF1) receptor antagonists” (J Med Chem, 2009).
In brackets after ≈: the same amount, converted by molar mass. Activity calls are given as the source filed them. The calls are words filed in the database; no cut-off is given here.

How the values were obtained:
[1] = molecular target: T1, Corticotropin-releasing factor receptor 1 (Rattus norvegicus, UniProt P35353); assay: Displacement of [125I]ovine-CRF from CRF1 receptor in rat frontal cortex by rapid filtration technique; type: tissue-based
T1 sequence (P35353 whole entry): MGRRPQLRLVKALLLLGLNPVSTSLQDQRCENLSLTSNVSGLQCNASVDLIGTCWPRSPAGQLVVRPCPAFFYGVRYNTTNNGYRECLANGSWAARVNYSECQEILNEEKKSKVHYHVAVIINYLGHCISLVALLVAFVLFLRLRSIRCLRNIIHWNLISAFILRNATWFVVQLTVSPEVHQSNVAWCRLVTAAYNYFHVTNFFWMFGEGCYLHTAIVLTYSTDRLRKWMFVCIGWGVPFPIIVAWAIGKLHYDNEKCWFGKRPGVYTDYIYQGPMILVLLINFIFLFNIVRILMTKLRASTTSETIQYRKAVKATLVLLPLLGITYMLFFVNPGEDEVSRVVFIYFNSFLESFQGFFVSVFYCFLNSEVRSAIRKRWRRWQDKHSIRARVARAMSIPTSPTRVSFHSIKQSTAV

[2] = Intrinsic clearance in human liver microsomes at 1 uM; type: ADME, Microsome
[3] = Fraction unbound in Sprague-Dawley rat plasma at 10 mg/kg, po after 3 hrs by equilibrium dialysis; type: ADME, organism-based; parameters: dose 10 mg/kg, route oral
[4] = tested on: Rattus norvegicus; assay: Total plasma concentration in Sprague-Dawley rat at 10 mg/kg, po; type: ADME, organism-based; parameters: dose 10 mg/kg, route oral; details: in vivo
[5] = tested on: Rattus norvegicus; assay: Plasma free concentration in Sprague-Dawley rat at 10 mg/kg, po; type: ADME, organism-based; parameters: dose 10 mg/kg, route oral; details: in vivo
[6] = tested on: Rattus norvegicus; assay: Ex vivo receptor occupancy of CRF1 receptor in Sprague-Dawley rat brain at 10 mg/kg, po after 20 mins by autoradiography relative to [125I-tyrosine]sauvagine; type: functional
[7] = Half life in Sprague-Dawley rat 2 mg/kg, iv within 0.17 to 24 hrs; type: ADME, organism-based; parameters: dose 2 mg/kg, route intravenous; details: in vivo
[8] = Volume of distribution at steady state in Sprague-Dawley rat 2 mg/kg, iv within 0.17 to 24 hrs; type: ADME, organism-based; parameters: dose 2 mg/kg, route intravenous; details: in vivo, read-out: Vdss
[9] = Clearance in Sprague-Dawley rat 2 mg/kg, iv within 0.17 to 24 hrs; type: ADME, organism-based; parameters: dose 2 mg/kg, route intravenous; details: in vivo
[10] = AUC in Sprague-Dawley rat at 10 mg/kg, po dosed as aqueous suspension of 1% polysorbate 80 in 0.5% methylcellulose within 0.25 to 24 hrs; type: ADME, organism-based; parameters: time 0.25-24 hr, dose 10 mg/kg, route oral; details: in vivo
[11] = Cmax in Sprague-Dawley rat at 10 mg/kg, po dosed as aqueous suspension of 1% polysorbate 80 in 0.5% methylcellulose within 0.25 to 24 hrs; type: ADME, organism-based; parameters: dose 10 mg/kg, route oral; details: in vivo
[12] = Oral bioavailability in Sprague-Dawley rat at 10 mg/kg dosed as aqueous suspension of 1% polysorbate 80 in 0.5% methylcellulose within 0.25 to 24 hrs; type: ADME, organism-based; details: in vivo
[13] = AUC in Sprague-Dawley rat at 10 mg/kg, po dosed as aqueous solution of oleoyl macrogolglyceride/DMAC/polysorbate 80, 85:10:5 within 0.25 to 24 hrs; type: ADME, organism-based; parameters: time 0.25-24 hr, dose 10 mg/kg, route oral; details: plasma
[14] = Cmax in Sprague-Dawley rat at 10 mg/kg, po dosed as aqueous solution of oleoyl macrogolglyceride/DMAC/polysorbate 80, 85:10:5 within 0.25 to 24 hrs; type: ADME, organism-based; parameters: dose 10 mg/kg, route oral; details: Sprague-Dawley, in vivo
[15] = Oral bioavailability in Sprague-Dawley rat at 10 mg/kg dosed as aqueous solution of oleoyl macrogolglyceride/DMAC/polysorbate 80, 85:10:5 within 0.25 to 24 hrs; type: ADME, organism-based; details: Sprague-Dawley, in vivo
[16] = Aqueous solubility at pH 1; type: physicochemical
[17] = Aqueous solubility at pH 6.5; type: physicochemical
[18] = tested on: Rattus norvegicus; assay: Anxiolytic activity in Sprague-Dawley rat at 10 mg/kg, po assessed as decrease in exit latency after 60 mins by defensive withdrawal test relative to control; type: functional; parameters: scale not given: the % may be the effect or the level left
[19] = tested on: Rattus norvegicus; assay: Ex vivo receptor occupancy of CRF1 receptor in Sprague-Dawley rat brain at 3 mg/kg, po after 20 mins by autoradiography relative to [125I-tyrosine]sauvagine; type: functional
[20] = tested on: Rattus norvegicus; assay: Ex vivo receptor occupancy of CRF1 receptor in Sprague-Dawley rat brain at 1 mg/kg, po after 20 mins by autoradiography relative to [125I-tyrosine]sauvagine; type: functional
[21] = tested on: Rattus norvegicus; assay: Anxiolytic activity in Sprague-Dawley rat at 3 mg/kg, po assessed as decrease in exit latency after 60 mins by defensive withdrawal test relative to control; type: functional
[22] = tested on: Rattus norvegicus; assay: Anxiolytic activity in Sprague-Dawley rat at 1 mg/kg, po assessed as decrease in exit latency after 60 mins by defensive withdrawal test relative to control; type: functional

SMILES | IC50 [1] [nM] | CLint scaled at 1 µM [2] [mL/min/kg] | further results
C[C@H](C1CC1)n1cc(Cl)nc(Nc2c(Cl)cc(Cl)cc2Cl)c1=O | 0.91 |  | 
CC[C@H](COC)n1cc(Cl)nc(Nc2c(Cl)cc(C(F)(F)F)cc2Cl)c1=O | 2.3 | 150 | 
COc1cc(C)c(Nc2nc(Cl)cn([C@H](C)C3CC3)c2=O)cc1C |  | 61 | 
CC[C@H](COC)n1cc(Cl)nc(Nc2c(Cl)cc(C#N)cc2Cl)c1=O | 1.7 | 210 | 
C[C@H](C1CC1)n1cc(Cl)nc(Nc2c(Cl)cc(C#N)cc2Cl)c1=O |  | 58 | fraction unbound at 3 h [3]: 0.019; concentration [4]: 120 nM; Cp(f) [5]: 2.3 nM; Activity [6]: 11%
CC[C@H](C1CC1)n1cc(Cl)nc(Nc2c(Cl)cc(C#N)cc2Cl)c1=O |  | 160 | 
COc1cc(Cl)c(Nc2nc(Cl)cn([C@H](C)C3CC3)c2=O)c(Cl)c1 |  | 130 | 
C[C@H](C1CC1)n1cc(Cl)nc(Nc2c(Cl)cc(OC(F)F)cc2Cl)c1=O | 0.46 | 22 | 
Cc1cn([C@H](C)C2CC2)c(=O)c(Nc2c(C)cc(Cl)cc2C)n1 | 3.1 |  | half-life [7]: 12 h; Vd [8]: 12 L/kg; clearance [9]: 30 mL/min/kg; AUC [10]: 0.95 µM·h; Cmax [11]: 95 nM; bioavailability [12]: 6%; AUC [13]: 1.7 µM·h; Cmax [14]: 270 nM; bioavailability [15]: 10%; solubility [16]: 1360 µg/mL (≈ 4100 µM); solubility [17]: 13 µg/mL (≈ 39.2 µM)
CC[C@H](C1CC1)n1cc(Cl)nc(Nc2c(C)cc(Cl)cc2Cl)c1=O |  | 210 | 
COc1cc(C)c(Nc2nc(Cl)cn([C@H](C)C3CC3)c2=O)cc1OC | 15 | 100 | 
C[C@@H](C1CC1)n1cc(Cl)nc(Nc2c(Cl)cc(C(F)(F)F)cc2Cl)c1=O | 7.9 |  | 
Cc1cc(C#N)cc(Cl)c1Nc1nc(Cl)cn([C@H](C)C2CC2)c1=O | 2.9 | 38 | fraction unbound at 3 h [3]: 0.044; concentration [4]: 250 nM; Cp(f) [5]: 11 nM; Activity [6]: 34%
COC[C@@H](C)n1cc(Cl)nc(Nc2c(Cl)cc(C#N)cc2Cl)c1=O | 18 | 35 | 
C[C@H](C1CC1)n1cc(C#N)nc(Nc2c(Cl)cc(C(F)(F)F)cc2Cl)c1=O | 7.5 | 13 | fraction unbound at 3 h [3]: 0.011; concentration [4]: 1400 nM; Cp(f) [5]: 16 nM; Activity [6]: 68%
COCC(COC)Nc1nc(C)nc2c(-c3ccc(Cl)cc3Cl)c(C)nn12 | 1.2 |  | Activity [18]: 61%
CC[C@H](C1CC1)n1cc(Cl)nc(Nc2c(C)cc(C)cc2C)c1=O |  | 340 | 
CC[C@H](C1CC1)n1cc(Cl)nc(Nc2c(Cl)cc(OC(F)(F)F)cc2Cl)c1=O | 1.8 | 77 | 
C[C@H](C1CC1)n1cc(C#N)nc(Nc2c(Cl)cc(OC(F)F)cc2Cl)c1=O | 4.3 |  | half-life [7]: 12 h; Vd [8]: 13 L/kg; clearance [9]: 21 mL/min/kg; AUC [10]: 1.9 µM·h; Cmax [11]: 160 nM; bioavailability [12]: 10%; AUC [13]: 15 µM·h; Cmax [14]: 1600 nM; bioavailability [15]: 80%; solubility [16]: < 1 µg/mL; solubility [17]: < 1 µg/mL; fraction unbound at 3 h [3]: 0.03; Activity [6]: 55%; Activity [18]: 61%

SMILES | IC50 [1] [nM] | CLint scaled at 1 µM [2] [mL/min/kg] | further results
Cc1cc(C)c(Nc2nc(Cl)cn([C@H](C)C3CC3)c2=O)c(C)c1 |  | 180 | 
COCC(COC)n1cc(Cl)nc(Nc2c(Cl)cc(C(F)(F)F)cc2Cl)c1=O | 8.5 | 53 | 
CCOc1cc(C)c(Nc2nc(Cl)cn([C@H](C)C3CC3)c2=O)cc1C | 1.2 | 32 | 
COc1cc(Cl)c(Nc2nc(Cl)cn([C@H](C)C3CC3)c2=O)cc1F | 8.2 | 180 | 
Cc1cc(C)c(Nc2nc(Cl)cn([C@H](C)C3CC3)c2=O)c(Cl)c1 | 0.98 | 140 | 
CCCC(CCC)n1cc(Cl)nc(Nc2c(Cl)cc(C(F)(F)F)cc2Cl)c1=O | 3.7 | 110 | 
COc1cc(Cl)c(C)cc1Nc1nc(Cl)cn([C@H](C)C2CC2)c1=O | 36 |  | 
C[C@H](C1CC1)n1cc(Cl)nc(Nc2cc3c(cc2Cl)OCC3)c1=O | 120 |  | 
C[C@H](C1CC1)n1cc(Cl)nc(Nc2c(Cl)cc(C(F)(F)F)cc2Cl)c1=O | 4.1 | 10 | half-life [7]: 17 h; Vd [8]: 24 L/kg; clearance [9]: 21 mL/min/kg; AUC [10]: 7.35 µM·h; Cmax [11]: 490 nM; bioavailability [12]: 37%; fraction unbound at 3 h [3]: 0.0033; concentration [4]: 2000 nM; Cp(f) [5]: 6.7 nM; Activity [6]: 81%; Activity [19]: inactive; Activity [20]: inactive; Activity [18]: 68%; Activity [21]: inactive; Activity [22]: inactive
C[C@H](C1CC1)n1cc(Cl)nc(Nc2c(Cl)cc(OC(F)(F)F)cc2Cl)c1=O | 6.5 | 30 | 
Cc1cc(C)c(Nc2nc(Cl)cn([C@H](C)C3CC3)c2=O)cc1C | 4.8 |  | 
COC[C@@H](C1CC1)n1cc(Cl)nc(Nc2c(Cl)cc(C(F)(F)F)cc2Cl)c1=O | 1.6 | 64 | 
C[C@H](C1CC1)n1cc(Cl)nc(Nc2c(Cl)cc(Cl)cc2C#N)c1=O | 18 |  | 
C[C@H](C1CC1)n1cc(Cl)nc(Nc2c(Cl)cc(S(C)(=O)=O)cc2Cl)c1=O | 63 |  | 
CC[C@H](C1CC1)n1cc(Cl)nc(Nc2c(Cl)cc(OC)cc2Cl)c1=O | 0.44 | 400 | 
Cc1cc(Cl)cc(Cl)c1Nc1nc(Cl)cn([C@H](C)C2CC2)c1=O | 1.2 | 44 | 
Cc1cc(Cl)c(Nc2nc(Cl)cn([C@H](C)C3CC3)c2=O)cc1C#N | 19 | 160 | 
COC[C@@H](C)n1cc(Cl)nc(Nc2c(Cl)cc(C(F)(F)F)cc2Cl)c1=O | 11 | 32 | 
CC[C@H](C1CC1)n1cc(Cl)nc(Nc2c(Cl)cc(C(F)(F)F)cc2Cl)c1=O | 1.3 | 89 | 
